Where two headings read alike, the source gives them in different places.
Target: T1, brain MAO-B enzyme (Homo sapiens, UniProt P27338)
T1 sequence (P27338 1-520): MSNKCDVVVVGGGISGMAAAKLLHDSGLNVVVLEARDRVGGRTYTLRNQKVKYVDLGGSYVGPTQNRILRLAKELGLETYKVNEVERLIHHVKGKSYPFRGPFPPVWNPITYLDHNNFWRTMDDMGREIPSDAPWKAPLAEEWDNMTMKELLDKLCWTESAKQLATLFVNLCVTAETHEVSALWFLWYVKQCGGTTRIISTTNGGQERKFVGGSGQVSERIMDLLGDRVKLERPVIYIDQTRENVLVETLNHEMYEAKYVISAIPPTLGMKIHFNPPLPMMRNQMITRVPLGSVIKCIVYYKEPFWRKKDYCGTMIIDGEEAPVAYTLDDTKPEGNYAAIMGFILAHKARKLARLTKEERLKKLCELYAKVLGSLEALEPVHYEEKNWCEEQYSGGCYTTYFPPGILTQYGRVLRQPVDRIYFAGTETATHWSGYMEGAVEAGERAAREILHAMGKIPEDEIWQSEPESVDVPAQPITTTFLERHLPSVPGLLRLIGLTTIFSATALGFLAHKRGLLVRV
Assay: PET with [11C]-L-deprenyl-D2: brain MAO-B inhibition after repeated oral sembragiline
Format: in vivo
Details: mean (range); for receptor occupancy at 0.2 mg / receptor occupancy at 5 mg / receptor occupancy at 1 mg / receptor occupancy at 0.1 mg: human, read-out: Occ (MAO-B occupancy); for receptor occupancy at 0.2 mg: 168 h; for receptor occupancy at 5 mg: 216 h; for receptor occupancy at 1 mg: 336 h; for receptor occupancy at 0.1 mg: 360 h, 5 mg loading day 1 then 0.1 mg q.d. days 2–15
Protocol: The first dose was administered at the study centre under the supervision of study personnel. On subsequent study days, treatment compliance was assured by intake logs and tablet counting.
At baseline, each subject underwent a PET scan using [^11C]-L-deprenyl-D2 to measure MAO-B enzyme activity in the brain prior to their first dose of allocated medication. The second scan was performed at trough concentrations at steady state prior to the last drug administration. Before each scan, a cannula was inserted into a radial artery and another into an antecubital vein. A sterile phosphate buffer (pH = 7.4) containing radioligand was injected as a bolus over several seconds into the cubital vein.
A transmission scan was performed using three rotating ^68Ge rod sources. [^11C]-L-Deprenyl-D2 was injected intravenously as a bolus, and emission data were acquired over 63 min using the ECAT EXACT high-resolution system (Siemens Medical Solutions, Malvern, PA, USA). The injected radioactivity was targeted to approximately 300 MBq. The injected mass of deprenyl was to be ≤100 μg, and ≥50–100-fold lower than the typical administered dose of 5–10 mg deprenyl to patients with Parkinson’s disease. The framing was as follows: 9 frames x 10 s, 2 frames x 15 s, 3 frames x 20 s, 4 frames x 30 s, 4 frames x 60 s, 4 frames x 180 s, 7 frames x 360 s. Images were reconstructed using the standard filtered back-projection, with a 2-mm Hanning filter, a zoom factor of 2.17, and a 128 × 128 matrix, and were corrected for attenuation and scatter. A summation PET image was created for each subject and PET session by averaging across all frames. Time–activity curves were then extracted from selected ROIs.
Arterial blood samples were used for measurement of radioactivity in whole blood and plasma, as well as to determine the parent fraction of the radioligand, using a reversed-phase high-performance liquid chromatography method (Karolinska University Hospital, Solna, Stockholm, Sweden). A catheter was inserted in the radial artery, and arterial blood was collected continuously for 10 min using an automated blood sampling system at a speed of 5 mL/min. Discrete blood samples were drawn approximately 10, 15, 20, 30, 45 and 60 min after each injection of [^11C]-L-deprenyl-D2.
Time–activity data were analysed as previously described. Briefly, [^11C]-L-deprenyl-D2 was quantified by the two-tissue compartment model with three rate constants (K 1, k 2, k 3) using the PMOD 3.3 software package (PMOD Group, Zurich, Switzerland), where the tissue compartments represent the free plus non-specifically bound and specifically bound radiotracer. The outcome measure λk 3 was calculated as (K 1/k 2)*k 3, using a non-linear approach, and was used as an estimate for specific binding to MAO-B that was independent of perfusion. […] This is because λk3 is independent of perfusion and has better reproducibility than k3 alone.

[1] = AD patients, 5 mg q.d. for 6–9 days, striatum, N = 2
[2] = AD patients, 5 mg q.d. for 6–9 days, whole brain, N = 2

SMILES: CC(=O)N[C@H]1CC(=O)N(c2ccc(OCc3cccc(F)c3)cc2)C1 [sembragiline]
- [11C]-L-deprenyl-D2 λk3 post-dose [1]: 0.05 (0.04–0.05)
- [11C]-L-deprenyl-D2 λk3 post-dose [2]: 0.04 (0.04–0.05)
- [11C]-L-deprenyl-D2 λk3 post-dose (EC subjects, 1 mg q.d. for 14 days, frontal cortex, N = 3): 0.04 (0.04–0.05)
- [11C]-L-deprenyl-D2 λk3 post-dose (EC subjects, 1 mg q.d. for 14 days, hippocampus, N = 3): 0.04 (0.03–0.05)
- [11C]-L-deprenyl-D2 λk3 post-dose (EC subjects, 1 mg q.d. for 14 days, parietal cortex, N = 3): 0.04 (0.04–0.05)
- [11C]-L-deprenyl-D2 λk3 post-dose (EC subjects, 1 mg q.d. for 14 days, striatum, N = 3): 0.05 (0.04–0.06)
- [11C]-L-deprenyl-D2 λk3 post-dose (EC subjects, 1 mg q.d. for 14 days, thalamus, N = 3): 0.05 (0.04–0.05)
- [11C]-L-deprenyl-D2 λk3 post-dose (EC subjects, 1 mg q.d. for 14 days, whole brain, N = 3): 0.05 (0.04–0.05)
- [11C]-L-deprenyl-D2 λk3 post-dose (EC subjects, 5 mg loading day 1 then 0.2 mg q.d. days 2–7, frontal cortex, N = 3): 0.07 (0.06–0.09)
- [11C]-L-deprenyl-D2 λk3 post-dose (EC subjects, 5 mg loading day 1 then 0.2 mg q.d. days 2–7, hippocampus, N = 3): 0.11 (0.09–0.13)
- [11C]-L-deprenyl-D2 λk3 post-dose (EC subjects, 5 mg loading day 1 then 0.2 mg q.d. days 2–7, parietal cortex, N = 3): 0.07 (0.06–0.09)
- [11C]-L-deprenyl-D2 λk3 post-dose (EC subjects, 5 mg loading day 1 then 0.2 mg q.d. days 2–7, striatum, N = 3): 0.12 (0.09–0.14)
- [11C]-L-deprenyl-D2 λk3 post-dose (EC subjects, 5 mg loading day 1 then 0.2 mg q.d. days 2–7, thalamus, N = 3): 0.12 (0.09–0.13)
- [11C]-L-deprenyl-D2 λk3 post-dose (EC subjects, 5 mg loading day 1 then 0.2 mg q.d. days 2–7, whole brain, N = 3): 0.08 (0.07–0.10)
- receptor occupancy at 0.2 mg (AD patients, 5 mg loading day 1 then 0.2 mg q.d. days 2–7, frontal cortex, N = 3): 70.2%
- receptor occupancy at 0.2 mg (AD patients, 5 mg loading day 1 then 0.2 mg q.d. days 2–7, hippocampus, N = 3): 76.1%
- receptor occupancy at 0.2 mg (AD patients, 5 mg loading day 1 then 0.2 mg q.d. days 2–7, parietal cortex, N = 3): 68.7%
- receptor occupancy at 0.2 mg (AD patients, 5 mg loading day 1 then 0.2 mg q.d. days 2–7, striatum, N = 3): 77.1%
- receptor occupancy at 0.2 mg (AD patients, 5 mg loading day 1 then 0.2 mg q.d. days 2–7, thalamus, N = 3): 76.8%
- receptor occupancy at 0.2 mg (AD patients, 5 mg loading day 1 then 0.2 mg q.d. days 2–7, whole brain, N = 3): 68.9%
- receptor occupancy at 5 mg (AD patients, 5 mg q.d. for 6–9 days, frontal cortex, N = 2): 77.8%
- receptor occupancy at 5 mg (AD patients, 5 mg q.d. for 6–9 days, hippocampus, N = 2): 83.3%
- receptor occupancy at 5 mg (AD patients, 5 mg q.d. for 6–9 days, parietal cortex, N = 2): 78.1%
- receptor occupancy at 5 mg [1]: 84.8%
- receptor occupancy at 5 mg (AD patients, 5 mg q.d. for 6–9 days, thalamus, N = 2): 86.3%
- receptor occupancy at 5 mg [2]: 76.3%
- receptor occupancy at 1 mg (AD patients, 1 mg q.d. for 14 days, frontal cortex, N = 2): 79.7%
- receptor occupancy at 1 mg (AD patients, 1 mg q.d. for 14 days, hippocampus, N = 2): 79.2%
- receptor occupancy at 1 mg (AD patients, 1 mg q.d. for 14 days, parietal cortex, N = 2): 78%
- receptor occupancy at 1 mg (AD patients, 1 mg q.d. for 14 days, striatum, N = 2): 85%
- receptor occupancy at 1 mg (AD patients, 1 mg q.d. for 14 days, thalamus, N = 2): 86%
- receptor occupancy at 1 mg (AD patients, 1 mg q.d. for 14 days, whole brain, N = 2): 75.5%
- receptor occupancy at 0.1 mg (AD patients, frontal cortex, N = 2): 56.9%
- receptor occupancy at 0.1 mg (AD patients, hippocampus, N = 2): 53.8%
- receptor occupancy at 0.1 mg (AD patients, parietal cortex, N = 2): 55.6%
- receptor occupancy at 0.1 mg (AD patients, striatum, N = 2): 59.9%
- receptor occupancy at 0.1 mg (AD patients, thalamus, N = 2): 60.4%
- receptor occupancy at 0.1 mg (AD patients, whole brain, N = 2): 55.2%

From article PMC5281649 (European Journal of Nuclear Medicine and Molecular Imaging, 2016)
